Where two headings read alike, the source gives them in different places.
How the values were obtained:
cfDNA / ctDNA = details: plasma
Description: Cell-free DNA (cfDNA) is isolated from patient plasma samples according to known methods. The concentration of the isolated cfDNA from LBYE and control patients are determined.

[1] = test system: lymphoma mutations and genetic variations; details: single dose of 20 mg, blood 12 hours later, vs control group bone marrow
Description: Human patients who are diagnosed with lymphoma are split into two experimental groups, an “LBYE” group and a “control group.” Patients may be matched across experimental groups by age, sex, and other clinical factors, such as lymphoma burden or genetic profile of the lymphoma in the patient.
Patients in the “LBYE” experimental group are administered a single dose of 20 mg plerixafor and undergo blood sampling 12 hours later. This sample is analyzed for the presence of various mutations and genetic variations known to influence prognosis in myeloma. […] In a variation on the above experiment, the LBYE group patients undergo a bone marrow examination which is subjected to appropriate testing.
In another variation on the experiment, the LBYE group's marrow and blood sample are pooled and analyzed in a single assay to make the test more cost-effective. […] The mononuclear cell fraction is analyzed for the presence of lymphoma CTCs by multiparametric flow cytometry according to methods described herein. Lymphoma CTCs are genetically profiled, e.g., by sequencing to determine the mutational profile of the CTCs. Mutational profile of the CTC sample is, in some cases, compared to mutational profile of lymphoma cells obtained from bone marrow sample from the same patient.

HSC = details: in vivo; cited from earlier work
[2] = test system: multiple myeloma mutations and genetic variations; details: single dose of 20 mg, blood 12 hours later, vs control group bone marrow
Description: Patients may be matched across experimental groups by age, sex, and other clinical factors, such as multiple myeloma burden or genetic profile of the multiple myeloma in the patient.

[3] = test system: lymphoma residual disease (diseased cells mobilized into blood)
Description: About 12 hours after plerixafor administration, patients in the LBYE group undergo a blood draw. The blood samples are subjected to MRD assay. […] In another variation of the experiment, where lymphoma patients serve as their own controls, patients undergo blood sampling after attaining complete remission. The blood is subjected to MRD assay. After the blood test is done, each patient receives 20 mg plerixafor and the blood is sampled 12 hours later. These blood samples are subjected to MRD assay by the same technique.

[4] = test system: solid tumor residual disease (diseased cells mobilized into blood)
Description: When in complete remission using conventional techniques after appropriate therapy, patients in the control group undergo a blood examination each of which is subjected to MRD detection/assay using an appropriate assay (e.g. The Guardant 360 liquid biopsy or the Tempus XF liquid biopsy). […] About 12 hours after plerixafor administration, patients in the LBYE group undergo a blood draw. The blood samples are subjected to the same MRD assay.
In another variation of the experiment, where cancer patients serve as their own controls, patients undergo blood examination after attaining complete remission. Afterwards, each patient receives 20 mg plerixafor and the blood is sampled 12 hours later. Both samples are subjected to MRD assay.

[5] = test system: multiple myeloma residual disease (diseased cells mobilized into blood)
Description: Patients may be matched across experimental groups by age, sex, and other clinical factors, such as multiple myeloma burden or genetic profile of the multiple myeloma in the patient. When in complete remission using conventional techniques after appropriate therapy, patients in the control group undergo a blood as well as bone marrow examination each of which is subjected to MRD detection/assay using the ClonoSEQ® technique (Adaptive Biotechnologies). […] About 12 hours after plerixafor administration, patients in the LBYE group undergo a blood draw. The blood samples are subjected to MRD assay using the ClonoSEQ® technique. […] In another variation of the experiment, where myeloma patients serve as their own controls, patients undergo bone marrow examination after attaining complete remission. The marrow is subjected to MRD assay by ClonoSEQ®. After the marrow exam is done, each patient receives 20 mg plerixafor and the blood is sampled 12 hours later. Blood samples are subjected to MRD assay by ClonoSEQ®.

[6] = test system: solid tumor mutations and genetic variations; details: single dose of 20 mg, blood 12 hours later, vs control group solid tumor examination
Description: Human patients who are diagnosed with one or more solid tumors are split into two experimental groups, an “LBYE” group and a “control group.” Patients may be matched across experimental groups by age, sex, and other clinical factors, such as solid tumor burden or genetic profile of the solid tumor in the patient.
Patients in the “LBYE” experimental group are administered a single dose of 20 mg plerixafor and undergo blood sampling 12 hours later. This sample is analyzed for the presence of various mutations and genetic variations known to influence prognosis in myeloma. […] In a variation on the above experiment, the LBYE group patients undergo a solid tumor examination which is subjected to appropriate testing.
In another variation on the experiment, the LBYE group's tumor and blood samples are pooled and analyzed in a single assay to make the test more cost-effective. […] The mononuclear cell fraction is analyzed for the presence of solid tumor CTCs by multiparametric flow cytometry according to methods described herein. Solid tumor CTCs are genetically profiled, e.g., by sequencing to determine the mutational profile of the CTCs. Mutational profile of the CTC sample is, in some cases, compared to mutational profile of solid tumor cells obtained from solid tumor sample from the same patient.

[7] = complete remission, single 20 mg dose, blood about 12 hours after, vs control group blood and bone marrow
[8] = patients as own controls, 20 mg, blood 12 hours later

## c1cc(CN2CCCNCCNCCCNCC2)ccc1CN1CCCNCCNCCCNCC1 [plerixafor, 1-{[4-(1,4,8,11-tetrazacyclotetradec-1-ylmethyl)phenyl]methyl}-1,4,8,11-tetrazacyclotetradecane]
cfDNA / ctDNA; lymphoma, patients as own controls, amongst patients positive for MRD
  cfDNA concentration/amount after LBYE: the concentration/amount of cfDNA is higher after LBYE
cfDNA / ctDNA; multiple myeloma
  cfDNA concentration, LBYE group vs control group: higher cfDNA concentrations than patients in the control group
cfDNA / ctDNA; solid tumor
  cfDNA concentration, LBYE group vs control group: higher cfDNA concentrations than patients in the control group
[1]
  Frequency and breadth of abnormalities (mutations and genetic variations): greater frequency and breadth of abnormalities than those in the control group
HSC
  Mobilization of HSC: rapidly mobilize HSC within hours
[2]
  Frequency and breadth of abnormalities (mutations and genetic variations): greater frequency and breadth of abnormalities than those in the control group
[3]; [7]
  Number of patients with residual disease detected (MRD assay): Residual disease is detected in a greater number of patients in the LBYE group than in the control group
[3]; [8]
  Proportion of patients positive for MRD, blood after LBYE vs non-LBYE blood sample: A greater proportion of patients is found to be positive for MRD from the blood after the LBYE technique than the non-LBYE blood sample
[4]; complete remission, single 20 mg dose, blood about 12 hours after, vs control group blood
  Number of patients with residual disease detected (MRD assay): Residual disease is detected in a greater number of patients in the LBYE group than in the control group
[4]; [8]
  Proportion of patients positive for MRD, post- vs pre-plerixafor blood sample: A greater proportion of patients is found to be positive for MRD from the blood sample obtained after plerixafor administration, as compared to the pre-plerixafor blood sample
[5]; [7]
  Number of patients with residual disease detected (MRD assay, ClonoSEQ): Residual disease is detected in a greater number of patients in the LBYE group than in the control group
[5]; patients as own controls, 20 mg, blood 12 hours later, ClonoSEQ
  Proportion of patients positive for MRD, blood after LBYE vs bone marrow: A greater proportion of patients is found to be positive for MRD from the blood after the LBYE technique than the bone marrow
[6]
  Frequency and breadth of abnormalities (mutations and genetic variations): greater frequency and breadth of abnormalities than those in the control group

Reference: patent US11933783B2, “Liquid biopsy yield enhancement” (priority 2020, dated 2024)
